9 compounds from patent US20260297080A1, “BICYCLIC COMPOUNDS AS CDK INHIBITORS” (BeOne Medicines I GmbH, priority 2022, published 2026) can be followed below.

One test has as its target CDK2/Cyclin E1 (Homo sapiens, UniProt P24941). Kind of test: CDK2/Cyclin E1 Biochemical Assay (TR-FRET), 1 mM ATP. The following applies: 0.15 μM Rb (Ser780)-biotin substrate, pH7.0, 60 min preincubation, 90 min reaction, room temperature. How it is done: (§1) CDK2/Cyclin E1 and CDK1/Cyclin B1 Biochemical Assays
(§2) Compounds disclosed herein were tested for inhibition of CDK2/Cyclin E1 or CDK1/Cyclin B1 kinase in an assay based on the time-resolved fluorescence-resonance energy transfer (TR-FRET) methodology. The assay was carried out in 384-well low volume black plates in a reaction mixture containing CDK2/Cyclin E1 or CDK1/Cyclin B1, 1 mM ATP for CDK2/Cyclin E1 and CDK1/Cyclin B1, 0.15 μM Rb (Ser780)-biotin substrate and 0-10 μM compound in buffer containing 50 mM HEPES pH7.0, 0.02% NaN3, 0.01% BSA, 0.1 mM Orthovanadate, 50 mM MgCl2, 1 mM DTT and 0.005% Tween-20. The kinase was incubated with compound for 60 minutes at room temperature and the reaction was initiated by the addition of ATP and Rb (Ser780)-biotin substrate. After reaction at room temperature for 90 minutes, an equal volume of stop/detection solution was added according to the manufacture's instruction (Cisbio Bioassays). The stop/detection solution contained Streptavidin-XL665 and Anti-pRb (Ser780) mAb-Eu Cryptate in Detection buffer (Cisbio Bioassays). Plates were incubated at room temperature for 60 minutes, and the TR-FRET signals (ex337 nm, em665 nm/620 nm) were recorded on a PHERAstar FSX plate reader (BMG Labtech). The inhibition percentage of CDK2/Cyclin E1 or CDK1/Cyclin B1 kinase activity in presence of increasing concentrations of compounds was calculated based on the ratio of fluorescence at 665 nm to that at 620 nm. The IC50 for each compound was derived from fitting the data to the four-parameter logistic equation by Dotmatics.
Background: Time-resolved FRET reads energy transfer from a long-lived donor to a nearby acceptor.

The target of a further test is CDK1/Cyclin B1 (Homo sapiens, UniProt P06493). Kind of test: CDK1/Cyclin B1 Biochemical Assay (TR-FRET), 1 mM ATP. The following applies: 0.15 μM Rb (Ser780)-biotin substrate, pH7.0, 60 min preincubation, 90 min reaction, room temperature. How it is done:
as §1, §2

The structures appear in SMILES notation.

CDK1/Cyclin B1, sequence (P06493 whole entry): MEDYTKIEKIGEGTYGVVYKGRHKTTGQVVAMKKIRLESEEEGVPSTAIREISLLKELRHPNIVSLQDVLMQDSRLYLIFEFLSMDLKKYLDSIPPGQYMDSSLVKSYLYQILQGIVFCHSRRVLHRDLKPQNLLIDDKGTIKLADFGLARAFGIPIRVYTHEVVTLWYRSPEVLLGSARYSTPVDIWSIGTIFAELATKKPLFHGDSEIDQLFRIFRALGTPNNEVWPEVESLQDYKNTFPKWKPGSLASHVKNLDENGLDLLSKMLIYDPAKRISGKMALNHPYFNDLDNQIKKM
CDK1/Cyclin B1, sequence (P14635 whole entry partner): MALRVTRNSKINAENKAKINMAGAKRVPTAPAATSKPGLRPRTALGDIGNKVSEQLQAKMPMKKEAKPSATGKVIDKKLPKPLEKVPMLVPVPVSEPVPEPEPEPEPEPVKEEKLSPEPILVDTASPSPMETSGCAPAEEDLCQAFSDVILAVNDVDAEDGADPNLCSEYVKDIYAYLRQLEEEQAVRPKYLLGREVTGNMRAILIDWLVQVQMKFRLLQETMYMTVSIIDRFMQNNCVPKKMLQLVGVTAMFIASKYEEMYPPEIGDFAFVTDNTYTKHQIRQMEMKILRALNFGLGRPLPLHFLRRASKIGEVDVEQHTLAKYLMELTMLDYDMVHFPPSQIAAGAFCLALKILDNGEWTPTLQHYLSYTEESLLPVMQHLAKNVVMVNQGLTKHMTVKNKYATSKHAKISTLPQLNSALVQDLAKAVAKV

With `CC1(C)CCCN1C(=O)O[C@H]1CC[C@@H](c2cc(Nc3ccc4c(c3F)CS(=O)(=O)N4)n[nH]2)C1` (relative stereo) [Example 436, cis-3-(3-((4-fluoro-2,2-dioxido-1,3-dihydrobenzo[c]isothiazol-5-yl)amino)-1H-pyrazol-5-yl)cyclopentyl 2,2-dimethylpyrrolidine-1-carboxylate], the 50% inhibitory concentration (IC50) (usually the concentration that gives 50% inhibition) is 1.5 nM against CDK2/Cyclin E1 and 122 nM at CDK1/Cyclin B1.

In the case of `CN(C(=O)O[C@H]1CC[C@@H](c2cc(Nc3ccc4c(c3F)CNS4(=O)=O)n[nH]2)C1)C1CCOC1` (relative stereo) [Example 437, cis-3-(3-((4-fluoro-1,1-dioxido-2,3-dihydrobenzo[d]isothiazol-5-yl)amino)-1H-pyrazol-5-yl)cyclopentyl methyl(tetrahydrofuran-3-yl)carbamate], the IC50 was 249 nM at CDK2/Cyclin E1 and over 10000 nM against CDK1/Cyclin B1.

On to `O=C(NCCC(F)(F)F)O[C@H]1CC[C@@H](c2cc(Nc3ccc4c(c3F)CS(=O)(=O)N4)n[nH]2)C1` (relative stereo) [Example 438, cis-3-(3-((4-fluoro-2,2-dioxido-1,3-dihydrobenzo[c]isothiazol-5-yl)amino)-1H-pyrazol-5-yl)cyclopentyl(3,3,3-trifluoropropyl)carbamate], for which the IC50 against CDK2/Cyclin E1 worked out at 4.7 nM; on CDK1/Cyclin B1, 583 nM.

In the case of `CC1(NC(=O)O[C@H]2CC[C@@H](c3cc(Nc4ccc5c(c4F)CS(=O)(=O)N5)n[nH]3)C2)CCCC1` (relative stereo) [Example 439, cis-3-(3-((4-fluoro-2,2-dioxido-1,3-dihydrobenzo[c]isothiazol-5-yl)amino)-1H-pyrazol-5-yl)cyclopentyl(1-methylcyclopentyl)carbamate], the IC50 came to 2.7 nM against CDK2/Cyclin E1 and 215 nM against CDK1/Cyclin B1.

Consider `CN(C(=O)O[C@H]1CC[C@@H](c2cc(Nc3cc4c(cc3F)S(=O)(=O)NC4)n[nH]2)C1)C1CCOC1` (relative stereo) [Example 440, cis-3-(3-((6-fluoro-1,1-dioxido-2,3-dihydrobenzo[d]isothiazol-5-yl)amino)-1H-pyrazol-5-yl)cyclopentyl methyl(tetrahydrofuran-3-yl)carbamate], for which the IC50 at CDK2/Cyclin E1 was 189 nM; on CDK1/Cyclin B1, over 10000 nM.

Take `CN(C(=O)O[C@H]1CC[C@@H](c2cc(Nc3ccc4c(c3F)CS(=O)(=O)N4)n[nH]2)C1)C1CCOC1` (relative stereo) [Example 441, cis-3-(3-((4-fluoro-2,2-dioxido-1,3-dihydrobenzo[c]isothiazol-5-yl)amino)-1H-pyrazol-5-yl)cyclopentyl methyl(tetrahydrofuran-3-yl)carbamate]: the IC50 against CDK2/Cyclin E1 turned out to be 47 nM; at CDK1/Cyclin B1, 5060 nM.

For `O=C(N[C@@H]1C[C@H]1O)O[C@H]1CC[C@@H](c2cc(Nc3ccc4c(c3F)CNS4(=O)=O)n[nH]2)C1` (relative stereo) [Example 442, cis-3-(3-((4-fluoro-1,1-dioxido-2,3-dihydrobenzo[d]isothiazol-5-yl)amino)-1H-pyrazol-5-yl)cyclopentyl((1R,2R)-2-hydroxycyclopropyl)carbamate], the IC50 was 55 nM against CDK2/Cyclin E1 and 2990 nM on CDK1/Cyclin B1.

Turning to `CC(C)(CO)NC(=O)O[C@H]1CC[C@@H](c2cc(Nc3ccc4c(c3F)CS(=O)(=O)N4)n[nH]2)C1` (relative stereo) [Example 443, cis-3-(3-((4-fluoro-2,2-dioxido-1,3-dihydrobenzo[c]isothiazol-5-yl)amino)-1H-pyrazol-5-yl)cyclopentyl(1-hydroxy-2-methylpropan-2-yl)carbamate], the concentration for half-maximal inhibition (IC50) came out at 1.6 nM against CDK2/Cyclin E1 and 582 nM against CDK1/Cyclin B1.

Consider `CC(C)(CO)NC(=O)O[C@H]1CC[C@@H](c2cc(Nc3cc4c(cc3F)S(=O)(=O)NC4)n[nH]2)C1` (relative stereo) [Example 444, cis-3-(3-((6-fluoro-1,1-dioxido-2,3-dihydrobenzo[d]isothiazol-5-yl)amino)-1H-pyrazol-5-yl)cyclopentyl(1-hydroxy-2-methylpropan-2-yl)carbamate], for which the IC50 was 16 nM on CDK2/Cyclin E1 and 7870 nM on CDK1/Cyclin B1.
